Structures can show the parent of a compound that is named as a salt. Where two headings read alike, the source gives them in different places.
What was measured:
[1] = molecular target: T1, peripheral opioid receptors (Mus musculus, UniProt P42866); test: precipitated diarrhea in morphine-maintained mice (peripheral opioid activity) and comparison with the writhing test; type: in vivo; details: for Ratio (AD50 mouse writhing test / ED50 mouse diarrhea test): higher ratio = greater relative antagonism of peripheral opioid receptors; for ED50: mouse, 0.5 h, morphine-maintained mice, antagonist subcutaneous or oral, 30 min observation
T1 construct: Mice maintained (6 mice/cage) on 0.01M saccharin water with 1 g/1 morphine sulfate; from tissue; host or cells: living morphine-maintained mice (in vivo test; endogenous receptor)
T1 sequence (P42866 whole entry): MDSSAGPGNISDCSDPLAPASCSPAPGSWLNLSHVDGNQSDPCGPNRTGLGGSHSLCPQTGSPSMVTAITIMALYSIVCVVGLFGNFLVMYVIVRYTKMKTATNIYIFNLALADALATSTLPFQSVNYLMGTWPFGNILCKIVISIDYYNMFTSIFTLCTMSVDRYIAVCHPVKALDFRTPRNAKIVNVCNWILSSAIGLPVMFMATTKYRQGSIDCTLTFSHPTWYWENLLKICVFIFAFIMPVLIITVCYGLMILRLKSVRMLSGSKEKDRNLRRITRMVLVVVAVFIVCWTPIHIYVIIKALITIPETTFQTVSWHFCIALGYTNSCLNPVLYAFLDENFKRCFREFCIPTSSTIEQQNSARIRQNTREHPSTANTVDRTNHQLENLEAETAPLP
Description: Determinations of peripheral opioid activity were conducted. Mice maintained (6 mice/cage) on 0.01M saccharin water with 1 g/1 morphine sulfate for a minimum of 10 days with mice averaging 3.0^+ g water/mouse/day for at least three days are used as subjects. The morphine water was removed 45 min. prior to injection with the proposed opioid antagonist. Initial testing consisted of 5 mice/dose of compound. The antagonist was given by the subcutaneous or oral, route of administration,and the mice were placed in 11-14"×4 7/12 I.D. clear plastic cylinders with white paper towels used for a floor.
The mice were then monitored visually for 30 minutes post-injection for the presence of jumping and of diarrhea. Jumping was scored as positive if at least one jump occurred in 30 min. Diarrhea was scored as positive when feces were moist enough to stain the white paper at the base of the cylinder. After 30 minutes of testing, the mice were placed back in original cages, put back on morphine water, and not tested again for 48 hrs. Lower doses of the antagonist compounds were tested until threshold doses for diarrhea were determined. Diarrhea is a peripherally mediated sign of precipitated opiate abstinence.
The extent of the effect on peripheral activity compared to central activity of the present compounds can-be determined by comparing the AD50 for the mouse writhing test with the ED50 for the mouse diarrhea test. The higher the ratio, the greater the relative antagonism of the peripheral opioid receptors by a particular compound.

mu receptor = molecular target: T2, mu receptor (Rattus norvegicus, UniProt P33535); test: opioid receptor binding assay, [3H] NAL (tritiated naloxone), mu receptor; design: species or system rat (Male Sprague Dawley), brain minus cerebellum
T2 construct: rat whole brain minus cerebellum for mu was homogenized; from tissue; host or cells: brain of male Sprague Dawley rats, whole brain minus cerebellum, homogenate fraction
T2 sequence (P33535 whole entry): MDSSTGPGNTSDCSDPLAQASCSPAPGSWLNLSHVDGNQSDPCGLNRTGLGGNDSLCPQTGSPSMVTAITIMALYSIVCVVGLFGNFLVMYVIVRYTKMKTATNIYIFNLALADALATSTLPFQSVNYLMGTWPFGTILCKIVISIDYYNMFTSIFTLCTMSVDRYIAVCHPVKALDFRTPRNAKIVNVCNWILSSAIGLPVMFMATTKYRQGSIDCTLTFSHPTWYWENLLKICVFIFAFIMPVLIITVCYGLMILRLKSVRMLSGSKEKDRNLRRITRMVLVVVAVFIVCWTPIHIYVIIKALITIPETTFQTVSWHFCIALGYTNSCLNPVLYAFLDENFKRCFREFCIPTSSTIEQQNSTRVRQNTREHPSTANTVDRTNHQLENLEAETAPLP
Description: This assay was conducted by the following procedure.
Male Sprague Dawley rats for mu site experiments were sacrificed via decapitation and the brains were removed. The brain tissue, rat whole brain minus cerebellum for mu was homogenized in a Teflon and glass tissue homogenizer. A supernatant I, pellet IV, fraction was frozen in a nitrogen freezer at 1.33 g/ml concentration and stored for not longer than five weeks prior to use. Pellets were rehydrated with physiological buffer prior to use.
The reaction was initiated by the addition of the resuspended tissue which had been preincubated at 37° C. for 20 minutes. The reaction mixture was incubated in a 37° C. water bath for 20 minutes. The reaction was terminated by rapid filtration, (Brandel Cell Harvestor), through Whatman GF/B glass filters that had been presoaked in Krebs-Hepes buffer pH 7.4. The filters were then washed 2x with 5 ml of ice cold Krebs-Hepes buffer pH 7.4. Washed filters were placed in scintillation vials and 10 ml RedySolv, (Brandel), was added and samples counted in a Searle D-300 beta counter. Means and standard error statistics were calculated for triplicate experimental determinations in certain cases. The incubation time for the reaction mixture was 20 minutes at 37° C.
Ki values were calculated using a minitab statistical program according to the following formula: [formula] wherein IC50 is the concentration at which 50% of the ^3 H ligand is displaced by the test compounds and KD is the dissociation constant for the ^3 H ligand at the receptor site. KD can be determined as described by Bennett, "Methods in Binding Studies", Neurotransmitter Receptor Binding, Yamamura, et al., ed., p. 57-90, Raven Press, N.Y. (1978) incorporated herein by reference.
In the Table, column 1 sets forth the Example Number of the compound evaluated, column 2 the Ki value in nanomolar (nM) at the mu receptor and columns 3 and 4 the percent displacement by the test compound at the indicated concentration, i.e., 10 nm or 100 nm.

opioid receptor = molecular target: T3, opioid receptor (Mus musculus, UniProt P42866); test: mouse writhing analgesis test: block of morphine-induced analgesia; type: in vivo, CF-1 male mice; design: unit not given here; details: dose of antagonist that reduced the inhibition of writhing produced by 1.25 mg/kg morphine sulfate to 50%; subcutaneous, 20 min before acetic acid
T3 construct: Five CF-1 male mice (Charles River, Portage, Mich.); from tissue; host or cells: living CF-1 male mice (in vivo test; endogenous receptor)
T3 sequence (P42866 whole entry): as the sequence (P42866 whole entry) above
Description: In order to determine in vivo opioid receptor antagonism, the mouse writhing analgesis test was used. Test compounds were measured for their ability to block morphine-induced analgesia.
Five CF-1 male mice (Charles River, Portage, Mich.), weighing approximately 20 g after being fasted overnight, were observed simultaneously for the writhing response. The writhing response was defined as a contraction of the abdominal musculature, followed by the extension of the hind limbs, and was induced by the intraperitoneal adminstration of 0.6% acetic acid in a volumne of 1 ml/100 g body weight. The observation period was 10 min. in duration, beginning 5 min. after injection of acetic acid. The percent inhibition of writhing was calculated from the average number of writhes in the control (non-drug) group. Each data point is the mean (±standarderror) for five mice. The ED50 was defined as the dose of agonist that inhibited mean writhing by 50%. […] Each mouse was only used once. All drugs were administered subcutaneously (1 ml/100 g bwt) 20 min. before the injection of acetic acid.

[2] = 20 min, read-out: % displacement at 10 nM, 10 nM test compound, [3H] naloxone 0.5 nM
[3] = 20 min, read-out: % displacement at 100 nM, 100 nM test compound, [3H] naloxone 0.5 nM
[4] = 20 min, read-out: % displacement at 100 nM
[5] = [3H] naloxone 0.5 nM, pH 7.4, 37° C., 20 min
[6] = 20 min, 10 nM test compound, [3H] naloxone 0.5 nM, read-out: % displacement at 10 nM
[7] = 20 min, 100 nM test compound, [3H] naloxone 0.5 nM, read-out: % displacement at 100 nM

SMILES | Ratio (AD50 mouse writhing test / ED50 mouse diarrhea test) [1] | ED50 [1] [mg/kg] | Ki (mu receptor) [nM] | inhibition at 0.01 µM (mu receptor; [2]) [%] | inhibition at 0.1 µM (mu receptor; [3]) [%] | AD50 (opioid receptor) | inhibition at 0.01 µM (mu receptor; 20 min, read-out: % displacement at 10 nM) [%] | inhibition at 0.1 µM (mu receptor; [4]) [%] | Ki (mu receptor; [5]) [nM] | inhibition at 0.01 µM (mu receptor; [6]) [%] | inhibition at 0.1 µM (mu receptor; [7]) [%]
CCOC(=O)CCCNC(=O)C(CCN1CC[C@@](C)(c2cccc(O)c2)[C@@H](C)C1)C1CCCCC1 (relative stereo) [Example 23, 4-[2-cyclohexyl-4-[4-(3-hydroxyphenyl)-3,4-dimethyl-1-piperidinyl]-1-oxobutyl]amino]-butanoic acid ethyl ester monohydrochloride monohydrate] | > 140 | 0.14 | 1.65 | 100 | 96 | > 20 |  |  |  |  | 
C[C@H]1CN(CC(Cc2ccccc2)C(=O)O)CC[C@@]1(C)c1cccc(O)c1 (relative stereo) [Example 4B, 4-(3-hydroxyphenyl)-3,4-dimethyl-a-(phenylmethyl)-1-piperidinepropanoic acid monohydrate] | 809 | 0.011 | 2.62 |  |  | 8.90 | 83 | 97 |  |  | 
CCOC(=O)CN(C)C(=O)CNC(=O)C(Cc1ccccc1)CN1CC[C@@](C)(c2cccc(O)c2)[C@@H](C)C1 (relative stereo) [Example 75] | 71 | 0.073 | 1.15 | 90 | 99 | 5.2 |  |  |  |  | 
CNC(=O)CNC(=O)C(CCN1CC[C@@](C)(c2cccc(O)c2)[C@@H](C)C1)C1CCCCC1 (relative stereo) [Example 21, N-[2-(methylamino)-2-oxoethyl]-4-[4-(3-hydroxyphenyl)-3,4-dimethyl-1-piperidinyl]-2-cyclohexyl butanamide hydrochloride] | > 125 | 0.16 | 0.45 | 96 | 100 | > 20 |  |  |  |  | 
CC(C)COC(=O)CNC(=O)C(Cc1ccccc1)CN1CC[C@@](C)(c2cccc(O)c2)[C@@H](C)C1 (some centres unmarked) [Example 54, 2-[2-(phenylmethyl)-1-oxo-3-4-(3-hydroxyphenyl)-3,4-dimethyl-1-piperidinyl]propyl]amino]-ethanoic acid 2-methylpropyl ester monohydrochloride] | 1150 | 0.02 |  | 78 |  | 23 |  | 98 | 2.27 |  | 
C[C@H]1CN(CCC(C(=O)O)C2CCCCC2)CC[C@@]1(C)c1cccc(O)c1 (relative stereo) [Example 9B, hydrochloride] | 75 | 0.02 | 0.66 | 90 | 93 | 1.50 |  |  |  |  | 
CCNC(=O)CNC(=O)C(CCN1CC[C@@](C)(c2cccc(O)c2)[C@@H](C)C1)c1ccccc1 (relative stereo) [Example 15, N-ethyl-2-[[4-[4-(3-hydroxyphenyl)-3,4-dimethyl-1-piperidinyl]]-2-phenyl-1-oxobutylamino]-acetamide monohydrochloride monohydrate] | > 133 | 0.3 | 1.07 | 99 | 100 | > 40 |  |  |  |  | 
CC(=O)OC(C)OC(=O)CNC(=O)C(Cc1ccccc1)CN1CC[C@@](C)(c2cccc(O)c2)[C@@H](C)C1 (relative stereo) [Example 94] | 2222 | 0.009 |  |  |  | 20 |  |  |  | 76 | 95
C[C@H]1CN(CC(Cc2ccccc2)C(=O)NCC(=O)NCC2CCCCC2)CC[C@@]1(C)c1cccc(O)c1 (relative stereo) [Example 91] | 8 | 0.5 |  |  |  | 4.0 |  | 94 |  | 69 | 
C[C@H]1CN(CCC(C(=O)O)c2ccccc2)CC[C@@]1(C)c1cccc(O)c1 (relative stereo) [Example 8B, trans-4-[(3-Hydroxyphenyl)-3,4-dimethyl-1-piperidine]-2-phenyl butanoic acid hydrochloride] | 53 | 0.012 |  | 100 | 100 | 0.64 |  |  | 0.27 |  | 
CCNC(=O)CCNC(=O)C(CC1CCCCC1)CN1CC[C@@](C)(c2cccc(O)c2)[C@@H](C)C1 (some centres unmarked) [Example 37, monohydrochloride] | 43 | 0.09 | 1.09 | 93 |  | 3.9 |  | 97 |  |  | 
C[C@H]1CN(CC(Cc2ccccc2)C(=O)NCCN(C)C)CC[C@@]1(C)c1cccc(O)c1 (relative stereo) [Example 69, N-[2-(dimethylamino)ethyl]-3-[4-(3-hydroxyphenyl)-3,4-dimethyl-1-piperidine]-2-phenylmethylpropanamide dihydrochloride] | 51 | 1.7 |  |  |  | 30 |  |  |  | 57 | 89
CCNC(=O)CNC(=O)C(Cc1ccccc1)CN1CC[C@@](C)(c2cccc(OC)c2)[C@@H](C)C1 (single isomer, unassigned) [Example 83] | 2 | 0.04 |  |  |  | 0.71 |  |  |  | 52 | 83
CCOC(=O)CCNC(=O)C(CC1CCCCC1)CN1CC[C@@](C)(c2cccc(O)c2)[C@@H](C)C1 (some centres unmarked) [Example 36, 3-[[2-(cyclohexylmethyl)-3-[4-(3-hydroxyphenyl)-3,4-dimethyl-1-piperidinyl]-1-oxo-propyl]amino]propanoic acid ethyl ester monohydrochloride] | 12 | 0.32 | 0.47 | 79 | 86 | 3.8 |  |  |  |  | 
